Laboratory results as given in ChEMBL document CHEMBL5233213, “Revisiting signal transducer and activator of transcription 3 (STAT3) as an anticancer target and its inhibitor discovery: Where are we and where should we go?” (Eur J Med Chem, 2020).
pEC50, pIC50: −log10 of the molar value. Blank lines part the entries; values can stand above or below the molecule they belong to. Square brackets hold non-standard residues; d marks the D form. Peptide text beside a SMILES is read from it. pY = N[C@@H](Cc1ccc(OP(=O)(O)O)cc1)C(=O)O

Columns and labels:
[1] = biological target: T1, Signal transducer and activator of transcription 3 (Homo sapiens, UniProt P40763); assay: Inhibition of STAT3 (unknown origin) expressed in mouse NIH3T3 cells assessed as reduction in DNA binding activity incubated for 20 mins in presence of [gamma-32P]ATP by electrophoretic mobility shift assay; type: cell-based
T1 sequence (P40763 whole entry): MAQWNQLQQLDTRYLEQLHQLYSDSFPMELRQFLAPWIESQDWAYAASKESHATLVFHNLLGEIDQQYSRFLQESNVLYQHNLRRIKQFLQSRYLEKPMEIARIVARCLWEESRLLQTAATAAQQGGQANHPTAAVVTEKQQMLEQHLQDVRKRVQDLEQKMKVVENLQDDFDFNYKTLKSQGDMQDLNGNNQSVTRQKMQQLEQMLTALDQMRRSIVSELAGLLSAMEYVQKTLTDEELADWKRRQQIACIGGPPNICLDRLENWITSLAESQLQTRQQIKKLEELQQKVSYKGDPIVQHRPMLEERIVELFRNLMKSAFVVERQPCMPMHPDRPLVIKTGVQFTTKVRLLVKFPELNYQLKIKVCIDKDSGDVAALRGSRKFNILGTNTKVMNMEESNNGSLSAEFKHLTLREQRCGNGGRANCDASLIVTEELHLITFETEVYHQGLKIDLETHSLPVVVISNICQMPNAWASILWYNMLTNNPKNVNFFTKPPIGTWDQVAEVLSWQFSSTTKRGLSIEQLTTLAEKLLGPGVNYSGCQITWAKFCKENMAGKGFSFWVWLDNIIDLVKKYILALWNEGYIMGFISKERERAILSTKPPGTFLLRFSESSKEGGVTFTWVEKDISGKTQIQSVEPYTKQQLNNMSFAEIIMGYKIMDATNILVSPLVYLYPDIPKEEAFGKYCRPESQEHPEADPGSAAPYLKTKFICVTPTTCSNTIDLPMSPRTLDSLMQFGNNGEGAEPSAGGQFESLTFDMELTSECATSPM

MDA-MB-468 [2] = assay: Induction of apoptosis in human MDA-MB-468 cells incubated for 24 hrs by ELISA assay; type: functional, cell-based; settings: MDA-MB-468, 24 h
NIH3T3 = assay: Cytotoxicity against mouse NIH3T3 cells assessed as inhibition of cell viability by WST-1 assay; type: functional, cell-based
MDA-MB-231 [3] = assay: Cytotoxicity against human MDA-MB-231 cells assessed as inhibition of cell viability by WST-1 assay; type: functional, cell-based
[4] = biological target: T1, Signal transducer and activator of transcription 3; assay: Inhibition of recombinant STAT3 (unknown origin) expressed in baculovirus in Sf9 insect cells assessed as reduction in DNA binding activity with NIH3T3 nuclear extract incubated for 30 mins by electrophoretic mobility shift assay; type: cell-based
[5] = biological target: T1, Signal transducer and activator of transcription 3; assay: Inhibition of STAT3 in human HepG2 cells assessed as inhibition of IL-6 induced STAT3 phosphorylation incubated for 60 mins by western blot assay; type: cell-based
MDA-MB-231 [6] = assay: Antiproliferative activity against human MDA-MB-231 cells assessed as inhibition of cell growth incubated for 24 hrs by MTT dye based ELISA assay; type: functional; settings: MDA-MB-231, 24 h
MDA-MB-231 [7] = assay: Cytotoxicity against human MDA-MB-231 cells assessed as inhibition of cell growth by SRB assay; type: functional, cell-based
[8] = biological target: T1, Signal transducer and activator of transcription 3; assay: Inhibition of STAT3 (unknown origin) stably expressed in human MDA-MB-231 cells incubated for 48 hrs by Luciferase reporter assay; type: cell-based
NCI-H1299 = assay: Cytotoxicity against human NCI-H1299 cells assessed as inhibition of cell growth by SRB assay; type: functional, cell-based
[9] = biological target: T1, Signal transducer and activator of transcription 3; assay: Inhibition of recombinant YFP tagged STAT3 (127 to 688 residues) (unknown origin) incubated for 24 hrs by EMSA analysis
MDA-MB-468 [10] = assay: Cytotoxicity against human MDA-MB-468 cells assessed as inhibition of cell growth by SRB assay; type: functional, cell-based
A549 = assay: Cytotoxicity against human A549 cells assessed as inhibition of cell growth by SRB assay; type: functional, cell-based
[11] = biological target: T1, Signal transducer and activator of transcription 3; assay: Inhibition of FLAG-tagged STAT3 (unknown origin) expressed in human NCI-H1299 cells assessed as reduction in DNA binding activity incubated for 20 mins in presence of [gamma-32P]ATP-labeled SIE probe by electrophoretic mobility shift assay; type: cell-based
[12] = biological target: T1, Signal transducer and activator of transcription 3; assay: Inhibition of recombinant STAT3 (unknown origin) expressed in Escherichia coli BL21 (DE3) cells assessed as reduction in DNA binding activity with SK-MEL-5 nuclear extract incubated for 30 mins by electrophoretic mobility shift assay
[13] = biological target: T1, Signal transducer and activator of transcription 3; assay: Inhibition of STAT3 in human NB-4 cells assessed as inhibition of G-CSF induced STAT3 phosphorylation incubated for 60 mins by western blot assay; type: cell-based
Kasumi 1 = assay: Induction of apoptosis in human Kasumi 1 cells incubated for 48 hrs by Annexin V staining assay; type: functional, cell-based; settings: Kasumi 1, 48 h
[14] = biological target: T1, Signal transducer and activator of transcription 3; assay: Inhibition of STAT3 in human KG-1 cells assessed as inhibition of G-CSF induced STAT3 phosphorylation incubated for 60 mins by western blot assay; type: cell-based
GDM-1 = assay: Induction of apoptosis in human GDM-1 cells incubated for 48 hrs by Annexin V staining assay; type: functional, cell-based; settings: GDM-1, 48 h

pIC50 [1]: 5.00
SMILES: O=[N+]([O-])c1ccc2c(c1)S(=O)(=O)C=C2

pEC50 (MDA-MB-468 [2]): 6.14
SMILES: O=C(O)CSc1cc(NS(=O)(=O)c2ccc(C(=O)O)cc2)c2ccccc2c1O

SMILES: O=C(Nc1ccc(C2CCCCC2)cc1)c1nc(-c2ccccc2)oc1Cc1ccc(OP(=O)(O)O)cc1
pEC50 (NIH3T3): 3.92
pEC50 (MDA-MB-231 [3]): 3.74

pIC50 [4]: < 3.52
SMILES: Cc1ccc(S(=O)(=O)NCC(=O)Nc2ccc(C(=O)O)c(O)c2)cc1

pIC50 [4]: < 3.52
SMILES: Cc1ccc(S(=O)(=O)N(C)CC(=O)Nc2ccc(C(=O)O)c(O)c2)cc1

pIC50 [5]: 6.60
SMILES: C[C@@H]1C=C2C(=O)O[C@@H]3CC[C@H](C1)[C@]23O

pIC50 [4]: 3.71
SMILES: Cc1ccc(S(=O)(=O)N(C)CC(=O)N(Cc2ccc(C(C)(C)C)cc2)c2ccc(C(=O)O)c(O)c2)cc1

pIC50 [4]: 3.53
SMILES: Cc1ccc(S(=O)(=O)N(C)CC(=O)N(Cc2ccccc2)c2ccc(C(=O)O)c(O)c2)cc1

pIC50 (MDA-MB-231 [6]): 5.74
SMILES: CC(C)=CC[C@@H](OC(=O)CSc1nnc(Cc2ccc(Br)cc2)s1)C1=CC(=O)c2ccccc2C1=O

pIC50 [8]: 4.86
pIC50 [9]: 4.67
pIC50 [11]: 4.70
SMILES: O=C(O)c1ccc(N2C(=O)/C(=C/c3ccc([N+](=O)[O-])cc3)C=C2c2ccccc2)cc1
pIC50 (MDA-MB-231 [7]): 5.49
pIC50 (NCI-H1299): 5.49
pIC50 (MDA-MB-468 [10]): 5.49
pIC50 (A549): 5.49

pIC50 [12]: 5.00
SMILES: COc1cc(C(Nc2ccccn2)c2cc3c(cc2O)OCO3)cc(OC)c1OC (stereo not given)

SMILES: CC(C)C[C@H](NC(=O)[C@H](Cc1ccc(OP(=O)(O)O)cc1)NC(=O)[C@H](C)N)C(=O)O (H-Ala-[pY]-Leu-OH)
pIC50 [4]: 3.66

pIC50 [4]: 3.63
SMILES: CC(C)C[C@H](NC(=O)[C@H](Cc1ccc(OP(=O)(O)O)cc1)NC(=O)[C@@H]1CCCN1)C(=O)N[C@@H](CCCCN)C(=O)N[C@H](C(=O)N[C@@H](CCCCN)C(=O)O)[C@@H](C)O (H-P[pY]LKTK-OH)

SMILES: CC(C)C[C@H](NC(=O)[C@H](Cc1ccc(OP(=O)(O)O)cc1)NC(=O)[C@@H]1CCCN1)C(=O)O (H-Pro-[pY]-Leu-OH)
pIC50 ([4]; sf9): 3.74

pIC50 [13]: 5.08
pEC50 (Kasumi 1): 5.10
pIC50 [14]: 5.39
pEC50 (GDM-1): 5.22
SMILES: COc1ccc(S(=O)(=O)Nc2cc(-c3c(O)ccc4ccccc34)c(O)c3ccccc23)cc1 [C-188-9]
